In patent publication US20070225318A1, “Pyrazole Compounds Useful In The Treatment Of Inflammation” (BIOLIPOX AB, priority 2004, published 2007):
Where two headings read alike, the source gives them in different places.

Molecular target: T1, purified human 15-lipoxygenase (Homo sapiens, UniProt P16050)
T1 sequence (P16050 1-662): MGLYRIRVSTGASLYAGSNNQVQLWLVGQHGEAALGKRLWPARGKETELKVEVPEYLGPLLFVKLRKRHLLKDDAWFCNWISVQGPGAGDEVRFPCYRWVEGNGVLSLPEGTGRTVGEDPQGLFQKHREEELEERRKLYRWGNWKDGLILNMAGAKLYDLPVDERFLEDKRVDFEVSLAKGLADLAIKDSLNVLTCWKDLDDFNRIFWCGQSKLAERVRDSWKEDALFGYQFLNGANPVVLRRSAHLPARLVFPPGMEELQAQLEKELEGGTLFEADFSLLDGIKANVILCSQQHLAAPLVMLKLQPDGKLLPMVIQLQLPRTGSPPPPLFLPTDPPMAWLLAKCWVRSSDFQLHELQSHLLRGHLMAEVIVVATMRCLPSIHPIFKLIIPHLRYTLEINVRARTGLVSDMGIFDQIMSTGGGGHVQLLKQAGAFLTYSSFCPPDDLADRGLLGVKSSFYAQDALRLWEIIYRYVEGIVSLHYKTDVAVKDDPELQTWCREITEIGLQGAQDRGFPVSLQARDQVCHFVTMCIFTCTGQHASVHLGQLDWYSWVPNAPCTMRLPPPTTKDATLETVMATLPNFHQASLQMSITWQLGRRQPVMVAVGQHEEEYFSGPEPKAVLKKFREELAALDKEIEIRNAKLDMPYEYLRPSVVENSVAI
Assay: 15-lipoxygenase inhibition assay (arachidonic acid oxidation, HPLC readout)
Format: biochemical
Method: The assay employed takes advantage of the ability of lipoxygenases to oxidize polyunsaturated fatty acids, containing a 1,4-cis-pentadiene configuration, to their corresponding hydroperoxy or hydroxyl derivatives. In this particular assay, the lipoxygenase was a purified human 15-lipoxygenase and the fatty acid was arachidonic acid. The assay is performed at room temperature (20-22° C.) and the following are added to each well in a 96-well microtiter plate:
a) 35 μL phosphate buffered saline (PBS) (pH 7.4);
b) inhibitor (i.e. compound) or vehicle (0.5 μl DMSO);
c) 10 μL of a 10× concentrated solution of 15-lipoxygenase in PBS. The plates are incubated for 5 minutes at room temperature;
The plate is then incubated for 10 minutes at room temperature;
e) the enzymatic reaction is terminated by the addition of 100 μl methanol; and
f) the amount of 15-hydroperoxy-eicosatetraenoic acid or 15-hydroxy-eicosatetraenoic acid is measured by reverse phase HPLC.

[1] = arachidonic acid substrate, room temperature, PBS pH 7.4, read-out: IC50

IC50 [1] [nM]	SMILES	IC50 [nM]
	O=C(Nc1ccc2ccccc2n1)c1cc[nH]n1 [Example 2, Pyrazole-3-carboxylic acid quinolin-2-ylamide]	330
420	Cc1cc(C(=O)Nc2cccc3ncccc23)n[nH]1 [Example 7, 5-Methylpyrazole-3-carboxylic acid quinolin-5-ylamide]	
211	O=C(Nc1cccc2[nH]ccc12)c1cc(Cl)[nH]n1 [Example 48, 5-Chloropyrazole-3-carboxylic acid indol-4-ylamide]	
76	CCOC(=O)c1c(NC(=O)c2cc[nH]n2)sc2c1CCCC2 [Example 56, 2-[(Pyrazole-3-carbonyl)amino]-4,5,6,7-tetrahydrobenzo[b]thiophene-3-carboxylic acid ethyl ester]	
465	O=C(Nc1cccc2cccnc12)c1cc[nH]n1 [Example 59, Pyrazole-3-carboxylic acid quinolin-8-ylamide]	
390	O=C(Nc1cccc2c1OC(F)(F)O2)c1cc[nH]n1 [Example 60, Pyrazole-3-carboxylic acid (2,3-(difluoromethylenedioxy)phenyl)amide]	
682	O=C(Nc1ccnc2ccc(Br)cc12)c1cc[nH]n1 [Example 63, Pyrazole-3-carboxylic acid (6-bromoquinolin-4-yl)amide]	
